Data reported in ChEMBL document CHEMBL1201861, “Genomics of Drug Sensitity in Cancer screening data, Wellcome Trust Sanger Institute”.

Columns and labels:
Assay in all cases: cells
NCI-H1693 = format: functional, cell-based, Homo sapiens; conditions: Homo sapiens, NCI-H1693;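 further: growth inhibition of the human cell line, read out with a cell viability assay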
Description: SANGER: Inhibition of human NCI-H1693 cell growth in a cell viability assay.

BB49-HNC = format: functional, cell-based, Homo sapiens; conditions: Homo sapiens, BB49-HNC;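 further: cell viability assay read-out, reported as inhibition of BB49-HNC cell growth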
Description: SANGER: Inhibition of human BB49-HNC cell growth in a cell viability assay.

SW48 = format: functional, cell-based, Homo sapiens; conditions: Homo sapiens, SW48;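 further: growth inhibition of SW48 cells, read out with a cell viability assay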
Description: SANGER: Inhibition of human SW48 cell growth in a cell viability assay.

ES8 = format: functional, cell-based, Homo sapiens; conditions: Homo sapiens, ES8;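 further: growth inhibition of human ES8 cells, read out with a cell viability assay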
Description: SANGER: Inhibition of human ES8 cell growth in a cell viability assay.

BB30-HNC = format: functional, cell-based, Homo sapiens; conditions: Homo sapiens, BB30-HNC;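 further: growth inhibition of the cultured cell line, read out by a cell viability assay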
Description: SANGER: Inhibition of human BB30-HNC cell growth in a cell viability assay.

KYSE-70 cell line = format: functional, cell-based, Homo sapiens; conditions: Homo sapiens, KYSE-70;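 further: cell viability assay read-out, with IC50 expressing suppression of KYSE-70 cell growth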
Description: SANGER: Inhibition of human KYSE-70 cell growth in a cell viability assay.

YKG-1 = format: functional, cell-based, Homo sapiens; conditions: Homo sapiens, YKG-1;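 further: cell growth inhibition, read out with a viability assay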
Description: SANGER: Inhibition of human YKG-1 cell growth in a cell viability assay.

EW-13 = format: functional, cell-based; conditions: Homo sapiens;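 further: growth inhibition of EW-13 cells, read out with a cell viability assay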
Description: SANGER: Inhibition of human EW-13 cell growth in a cell viability assay.

NCI-H526 = format: functional, cell-based; conditions: Homo sapiens;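 further: growth inhibition of the human NCI-H526 cell line, measured by a cell viability assay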
Description: SANGER: Inhibition of human NCI-H526 cell growth in a cell viability assay.

KE-37 = format: functional, cell-based; conditions: Homo sapiens;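 further: growth inhibition of KE-37 cells, read out with a cell viability assay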
Description: SANGER: Inhibition of human KE-37 cell growth in a cell viability assay.

DB = format: functional, cell-based; conditions: Homo sapiens
Description: SANGER: Inhibition of human DB cell growth in a cell viability assay.

ETK-1 = format: functional, cell-based, Homo sapiens; conditions: Homo sapiens, ETK-1;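 further: growth inhibition of human ETK-1 cells, read out with a cell viability assay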
Description: SANGER: Inhibition of human ETK-1 cell growth in a cell viability assay.

MKN-28 = format: functional, cell-based, Homo sapiens; conditions: Homo sapiens, MKN-28;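 further: cell viability assay read-out, IC50 reflects suppression of growth of human MKN-28 cells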
Description: SANGER: Inhibition of human MKN28 cell growth in a cell viability assay.

HuO-3N1 = format: functional, cell-based, Homo sapiens; conditions: Homo sapiens, HuO-3N1;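 further: cell viability readout used to measure how strongly compounds suppress proliferation of human HuO-3N1 cells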
Description: SANGER: Inhibition of human HuO-3N1 cell growth in a cell viability assay.

8305C = format: functional, cell-based, Homo sapiens; conditions: Homo sapiens, 8305C
Description: SANGER: Inhibition of human 8305C cell growth in a cell viability assay.

KYSE-410 = format: functional, cell-based, Homo sapiens; conditions: Homo sapiens, KYSE-410;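 further: growth inhibition of KYSE-410 cells, measured through a cell viability readout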
Description: SANGER: Inhibition of human KYSE-410 cell growth in a cell viability assay.

KNS-42 = format: functional, cell-based, Homo sapiens; conditions: Homo sapiens, KNS-42;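 further: growth inhibition of KNS-42 cells, read out with a cell viability assay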
Description: SANGER: Inhibition of human KNS-42 cell growth in a cell viability assay.

NCI-H520 = format: functional, cell-based, Homo sapiens; conditions: Homo sapiens, NCI-H520;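 further: growth inhibition of NCI-H520 cells, measured by a cell viability assay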
Description: SANGER: Inhibition of human NCI-H520 cell growth in a cell viability assay.

A498 = format: functional, cell-based, Homo sapiens; conditions: Homo sapiens, A498;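 further: growth inhibition of human A498 cells, read out with a cell viability assay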
Description: SANGER: Inhibition of human A498 cell growth in a cell viability assay.

T98G = format: functional, cell-based, Homo sapiens; conditions: Homo sapiens, T98G;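 further: growth inhibition of T98G cells, read out by a cell viability assay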
Description: SANGER: Inhibition of human T98G cell growth in a cell viability assay.

COLO-679 = format: functional, cell-based, Homo sapiens; conditions: Homo sapiens, COLO-679
Description: SANGER: Inhibition of human COLO-679 cell growth in a cell viability assay.

HT-3 = format: functional, cell-based, Homo sapiens; conditions: Homo sapiens, HT-3;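 further: growth inhibition measured with a cell viability readout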
Description: SANGER: Inhibition of human HT-3 cell growth in a cell viability assay.

CAL-62 = format: functional, cell-based, Homo sapiens; conditions: Homo sapiens, CAL-62;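 further: growth inhibition of CAL-62 cells, read out with a cell viability assay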
Description: SANGER: Inhibition of human CAL-62 cell growth in a cell viability assay.

ES4 = format: functional, cell-based, Homo sapiens; conditions: Homo sapiens, ES4;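 further: growth inhibition of human ES4 cells, read out by a cell viability assay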
Description: SANGER: Inhibition of human ES4 cell growth in a cell viability assay.

C3A = format: functional, cell-based, Homo sapiens; conditions: Homo sapiens, C3A;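 further: growth inhibition of C3A human cells, quantified with a cell viability readout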
Description: SANGER: Inhibition of human C3A cell growth in a cell viability assay.

NB5 = format: functional, cell-based, Homo sapiens; conditions: Homo sapiens, NB5;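 further: growth inhibition of NB5 cells, read out as cell viability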
Description: SANGER: Inhibition of human NB5 cell growth in a cell viability assay.

Detroit 562 = format: functional, cell-based, Homo sapiens; conditions: Homo sapiens, Detroit 562;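 further: growth inhibition of human Detroit 562 cells, read out by a cell viability assay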
Description: SANGER: Inhibition of human Detroit562 cell growth in a cell viability assay.

LC-2-ad = format: functional, cell-based, Homo sapiens; conditions: Homo sapiens, LC-2-ad;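 further: growth inhibition of human LC-2-ad cells, read out with a cell viability assay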
Description: SANGER: Inhibition of human LC-2-ad cell growth in a cell viability assay.

C-33-A = format: functional, cell-based, Homo sapiens; conditions: Homo sapiens, C-33-A;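 further: cell viability assay measuring growth inhibition of C-33-A cells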
Description: SANGER: Inhibition of human C-33-A cell growth in a cell viability assay.

HO-1-N-1 = format: functional, cell-based, Homo sapiens; conditions: Homo sapiens, HO-1-N-1;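 further: growth inhibition of human HO-1-N-1 cells, read out with a cell viability assay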
Description: SANGER: Inhibition of human HO-1-N-1 cell growth in a cell viability assay.

NCI-H2126 = format: functional, cell-based, Homo sapiens; conditions: Homo sapiens, NCI-H2126;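 further: growth inhibition of the cancer cell line, determined with a cell viability readout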
Description: SANGER: Inhibition of human NCI-H2126 cell growth in a cell viability assay.

CHP-212 = format: functional, cell-based, Homo sapiens; conditions: Homo sapiens, CHP-212
Description: SANGER: Inhibition of human CHP-212 cell growth in a cell viability assay.

MHH-ES-1 = format: functional, cell-based, Homo sapiens; conditions: Homo sapiens, MHH-ES-1;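 further: cell growth inhibition measured by a cell viability assay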
Description: SANGER: Inhibition of human MHH-ES-1 cell growth in a cell viability assay.

MHH-PREB-1 = format: functional, cell-based; conditions: Homo sapiens;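 further: cell viability assay measuring inhibition of proliferation of human MHH-PREB-1 cells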
Description: SANGER: Inhibition of human MHH-PREB-1 cell growth in a cell viability assay.

A2780 = format: functional, cell-based, Homo sapiens; conditions: Homo sapiens, A2780;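 further: growth inhibition of A2780 cells, read out with a cell viability assay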
Description: SANGER: Inhibition of human A2780 cell growth in a cell viability assay.

LOX IMVI = format: functional, cell-based; conditions: Homo sapiens
Description: SANGER: Inhibition of human LOXIMVI cell growth in a cell viability assay.

CAL-27 = format: functional, cell-based, Homo sapiens; conditions: Homo sapiens, CAL-27;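 further: Viability-based readout, IC50 reflecting inhibition of CAL-27 cell growth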
Description: SANGER: Inhibition of human CAL-27 cell growth in a cell viability assay.

MZ1-PC = format: functional, cell-based, Homo sapiens; conditions: Homo sapiens, MZ1-PC;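 further: cell viability assay measuring growth inhibition of human MZ1-PC cells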
Description: SANGER: Inhibition of human MZ1-PC cell growth in a cell viability assay.

DEL = format: functional, cell-based; conditions: Homo sapiens;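 further: growth inhibition of the human DEL cell line, read out with a cell viability assay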
Description: SANGER: Inhibition of human DEL cell growth in a cell viability assay.

VM-CUB-1 = format: functional, cell-based; conditions: Homo sapiens;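 further: cell viability assay measuring growth inhibition of the human VM-CUB-1 cell line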
Description: SANGER: Inhibition of human VM-CUB-1 cell growth in a cell viability assay.

BHT-101 = format: functional, cell-based, Homo sapiens; conditions: Homo sapiens, BHT-101
Description: SANGER: Inhibition of human BHT-101 cell growth in a cell viability assay.

SBC-1 = format: functional, cell-based; conditions: Homo sapiens;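 further: cell viability assay measuring growth inhibition of the SBC-1 cell line, IC50 being the concentration that halves growth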
Description: SANGER: Inhibition of human SBC-1 cell growth in a cell viability assay.

SW-620 = format: functional, cell-based, Homo sapiens; conditions: Homo sapiens, SW-620;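 further: growth inhibition of human SW-620 cells, measured by a cell viability assay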
Description: SANGER: Inhibition of human SW620 cell growth in a cell viability assay.

LU-99A = format: functional, cell-based, Homo sapiens; conditions: Homo sapiens, LU-99A;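 further: growth inhibition of LU-99A cells, read out with a cell viability assay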
Description: SANGER: Inhibition of human LU-99A cell growth in a cell viability assay.

SW13 = format: functional, cell-based, Homo sapiens; conditions: Homo sapiens, SW13;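 further: IC50 is inhibition of SW13 cell growth, read out with a cell viability assay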
Description: SANGER: Inhibition of human SW13 cell growth in a cell viability assay.

SK-MEL-24 = format: functional, cell-based; conditions: Homo sapiens;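 further: growth inhibition read out by a cell viability assay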
Description: SANGER: Inhibition of human SK-MEL-24 cell growth in a cell viability assay.

CAL-51 = format: functional, cell-based, Homo sapiens; conditions: Homo sapiens, CAL-51;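 further: human CAL-51 cell line, growth inhibition read out via a cell viability assay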
Description: SANGER: Inhibition of human CAL-51 cell growth in a cell viability assay.

IST-MEL1 = format: functional, cell-based, Homo sapiens; conditions: Homo sapiens, IST-MEL1;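 further: growth inhibition of the cell line, read out with a cell viability assay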
Description: SANGER: Inhibition of human IST-MEL1 cell growth in a cell viability assay.

MEG-01 = format: functional, cell-based; conditions: Homo sapiens;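 further: growth inhibition of MEG-01 cells, read out by a cell viability assay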
Description: SANGER: Inhibition of human MEG-01 cell growth in a cell viability assay.

LS-513 = format: functional, cell-based, Homo sapiens; conditions: Homo sapiens, LS-513
Description: SANGER: Inhibition of human LS-513 cell growth in a cell viability assay.

KLE = format: functional, cell-based, Homo sapiens; conditions: Homo sapiens, KLE;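 further: growth inhibition of human KLE cells, read out with a cell viability assay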
Description: SANGER: Inhibition of human KLE cell growth in a cell viability assay.

SNU-449 = format: functional, cell-based, Homo sapiens; conditions: Homo sapiens, SNU-449
Description: SANGER: Inhibition of human SNU-449 cell growth in a cell viability assay.

Molecule CN(c1ncccc1CNc1nc(Nc2ccc3c(c2)CC(=O)N3)ncc1C(F)(F)F)S(C)(=O)=O [PF-00562271] has an IC50 (NCI-H1693) greater than 2.56 µM, an IC50 (BB49-HNC) greater than 2.56 µM and an IC50 (SW48) greater than 2.56 µM. The IC50 (ES8) was greater than 2.56 µM, the IC50 (BB30-HNC) was greater than 2.56 µM and the IC50 (KYSE-70 cell line) was greater than 2.56 µM. The IC50 (YKG-1) was greater than 2.56 µM, the IC50 (EW-13) was 1.63 µM and the IC50 (NCI-H526) was greater than 2.56 µM. For the same molecule, the IC50 (KE-37) was greater than 2.56 µM, the IC50 (DB) was greater than 2.56 µM and the IC50 (ETK-1) was 2.28 µM. The IC50 (MKN-28) was greater than 2.56 µM, the IC50 (HuO-3N1) was greater than 2.56 µM and the IC50 (8305C) was 1.1 µM. It also gave an IC50 (KYSE-410) greater than 2.56 µM, an IC50 (KNS-42) greater than 2.56 µM and an IC50 (NCI-H520) greater than 2.56 µM. The IC50 (A498) was greater than 2.56 µM, the IC50 (T98G) was greater than 2.56 µM and the IC50 (COLO-679) was greater than 2.56 µM. For the same molecule, the IC50 (HT-3) was greater than 2.56 µM, the IC50 (CAL-62) was 1.32 µM and the IC50 (ES4) was greater than 2.56 µM. For the same molecule, the IC50 (C3A) was greater than 2.56 µM, the IC50 (NB5) was greater than 2.56 µM and the IC50 (Detroit 562) was 1.35 µM. It also gave an IC50 (LC-2-ad) of 2.27 µM, an IC50 (C-33-A) greater than 2.56 µM and an IC50 (HO-1-N-1) greater than 2.56 µM. It also gave an IC50 (NCI-H2126) greater than 2.56 µM, an IC50 (CHP-212) of 2.1 µM and an IC50 (MHH-ES-1) of 1.8 µM. It also gave an IC50 (MHH-PREB-1) greater than 2.56 µM, an IC50 (A2780) greater than 2.56 µM and an IC50 (LOX IMVI) greater than 2.56 µM. For the same molecule, the IC50 (CAL-27) was greater than 2.56 µM, the IC50 (MZ1-PC) was 1.62 µM and the IC50 (DEL) was greater than 2.56 µM. For the same molecule, the IC50 (VM-CUB-1) was greater than 2.56 µM, the IC50 (BHT-101) was greater than 2.56 µM and the IC50 (SBC-1) was greater than 2.56 µM. The IC50 (SW-620) was greater than 2.56 µM, the IC50 (LU-99A) was greater than 2.56 µM and the IC50 (SW13) was greater than 2.56 µM. For the same molecule, the IC50 (SK-MEL-24) was greater than 2.56 µM, the IC50 (CAL-51) was greater than 2.56 µM and the IC50 (IST-MEL1) was greater than 2.56 µM. For the same molecule, the IC50 (MEG-01) was greater than 2.56 µM, the IC50 (LS-513) was greater than 2.56 µM and the IC50 (KLE) was greater than 2.56 µM. For the same molecule, the IC50 (SNU-449) was greater than 2.56 µM.
Molecule Cn1cc(C2=C(c3ccc(Cl)cc3Cl)C(=O)NC2=O)c2ccccc21 [SB-216763] has an IC50 (NCI-H1693) greater than 10 µM, an IC50 (BB49-HNC) greater than 10 µM and an IC50 (SW48) greater than 10 µM. The IC50 (ES8) was greater than 10 µM, the IC50 (BB30-HNC) was greater than 10 µM and the IC50 (KYSE-70 cell line) was greater than 10 µM. The IC50 (YKG-1) was greater than 10 µM, the IC50 (EW-13) was greater than 10 µM and the IC50 (NCI-H526) was 0.0489 µM. The IC50 (KE-37) was greater than 10 µM, the IC50 (DB) was greater than 10 µM and the IC50 (ETK-1) was greater than 10 µM. It also gave an IC50 (MKN-28) greater than 10 µM, an IC50 (HuO-3N1) greater than 10 µM and an IC50 (8305C) greater than 10 µM. The IC50 (KYSE-410) was greater than 10 µM, the IC50 (KNS-42) was greater than 10 µM and the IC50 (NCI-H520) was greater than 10 µM. It also gave an IC50 (A498) greater than 10 µM, an IC50 (T98G) greater than 10 µM and an IC50 (COLO-679) greater than 10 µM. For the same molecule, the IC50 (HT-3) was greater than 10 µM, the IC50 (CAL-62) was greater than 10 µM and the IC50 (ES4) was greater than 10 µM. It also gave an IC50 (C3A) greater than 10 µM, an IC50 (NB5) greater than 10 µM and an IC50 (Detroit 562) greater than 10 µM. For the same molecule, the IC50 (LC-2-ad) was greater than 10 µM, the IC50 (C-33-A) was greater than 10 µM and the IC50 (HO-1-N-1) was greater than 10 µM. It also gave an IC50 (NCI-H2126) greater than 10 µM, an IC50 (CHP-212) greater than 10 µM and an IC50 (MHH-ES-1) greater than 10 µM. For the same molecule, the IC50 (MHH-PREB-1) was greater than 10 µM, the IC50 (A2780) was greater than 10 µM and the IC50 (LOX IMVI) was greater than 10 µM. For the same molecule, the IC50 (CAL-27) was greater than 10 µM, the IC50 (MZ1-PC) was greater than 10 µM and the IC50 (DEL) was greater than 10 µM. The IC50 (VM-CUB-1) was greater than 10 µM, the IC50 (BHT-101) was greater than 10 µM and the IC50 (SBC-1) was greater than 10 µM. The IC50 (SW-620) was greater than 10 µM, the IC50 (LU-99A) was greater than 10 µM and the IC50 (SW13) was greater than 10 µM. The IC50 (SK-MEL-24) was greater than 10 µM, the IC50 (CAL-51) was greater than 10 µM and the IC50 (IST-MEL1) was greater than 10 µM. The IC50 (MEG-01) was greater than 10 µM, the IC50 (LS-513) was greater than 10 µM and the IC50 (KLE) was greater than 10 µM. It also gave an IC50 (SNU-449) greater than 10 µM.
